The text below walks through data of patent US4261885A, “Novel somatostatin analogue” (Shiraimatsu Shingaku Co., Ltd., priority 1978, dated 1981).

The structures appear in SMILES notation. Peptide text beside a SMILES is read from it.

One series deals with blood glucose levels. As to the kind of experiment: Arginine-induced changes in blood glucose in rats (glucose oxidase method). The class given is in vivo, rat. As to the method:
(§1) Studies were made of the effects of the compound of this invention on arginine-induced changes in blood glucose, insulin and glucagon levels and the results obtained were compared with those of somatostatin.
(§2) Male SD rats weighing 300 to 500 g were anesthetized with sodium pentobarbital (60 mg/kg of body weight, by intraabdominal puncture) and polyethylene catheters were placed in their carotid artery. Saline was infused over 10 minutes, and arginine was infused at a rate of 3 g/kg/hr, for 60 minutes, using an infusion pump (at a rate of 4.5 ml/kg/hr). For 30 minutes, immediately after the start of arginine infusion, somatostatin or the compound of this invention was infused at rates of 4 μg/kg/hr, as a basal dose, 40 μg/kg/hr as 10 times as the basal dose, and 400 μg/kg/hr, as 100 times as the basal dose, respectively.
(§3) Before and 15 minutes, 30 minutes and 60 minutes after the start of arginine infusion, blood samples were taken in the presence of heparine. Blood glucose values were measured by the glucose oxidase method, and blood insulin and glucagon values were measured by the radioimmunoassay method.

A further series deals with blood glucagon levels. As to the kind of experiment: Arginine-induced changes in blood glucagon in rats (radioimmunoassay). The class given is in vivo, rat. The method, then: as §1, §2, §3
Another series relates to blood insulin levels. As to the kind of experiment: Arginine-induced changes in blood insulin in rats (radioimmunoassay). The series is classed as in vivo, rat. The method, then: as §1, §2, §3
The test system of the next series is mouse. As to the kind of experiment: Acute toxicity, infusion into the tail vein of a test mouse. The class given is in vivo. As to the method: The experiment for determining acute toxicity is carried out by infusing this compound into the tail vein of a test mouse in the amount of 5 mg/kg of body weight.
Series [1] can be described thus: Stability in pharmaceutical preparations. The series is classed as physicochemical. Particulars: when used in pharmaceutical preparations.
Another series can be described thus: Solubility in water. The class given is physicochemical.
Where [2] appears, read: rats, arginine 3 g/kg/hr, substance infused for 30 minutes.

For `C[C@H](N)C(=O)NCC(=O)N[C@H]1CSSC[C@@H](C(=O)O)NC(=O)[C@H](CO)NC(=O)[C@H]([C@@H](C)O)NC(=O)[C@H](Cc2ccccc2)NC(=O)[C@H]([C@@H](C)O)NC(=O)[C@H](CCCCN)NC(=O)[C@H](Cc2c[nH]c3ccccc23)NC(=O)[C@H](Cc2ccccc2)NC(=O)[C@H](Cc2ccccc2)NC(=O)[C@H](CC(N)=O)NC(=O)[C@H](CCCCN)NC1=O` [somatostatin], the “blood glucose level versus control” value is on record as “Statistically significant low levels of blood glucose” with blood glucose levels (at 100 times the basal dose (basal 4 μg/kg/hr), 30 minutes after start of arginine infusion) and “Statistically significant low levels of blood glucose” in the series with blood glucose levels (at more than 10 times the basal dose (basal 4 μg/kg/hr), 15 minutes after start of arginine infusion). Also, the “rise in blood glucose levels induced by arginine” value in the series with blood glucose levels (setting [2]) was “inhibited”. Besides, the “effect on blood glucagon level” value in the series on blood glucagon levels (45 minutes after start of arginine infusion) is listed as “lost its effect”. Further, the “blood glucagon level versus control” value in the series on blood glucagon levels (at more than 10 times the basal dose, 15 minutes and 30 minutes after start of arginine infusion) is “significantly lowered its level”. The “effect after the suspension of infusion” value with blood insulin levels (15 minutes after the suspension of infusion, conclusion on insulin and glucagon) is “its effect was no longer observed”. For the same molecule, the “effect on blood insulin level after suspension of infusion” value in the series with blood insulin levels (45 minutes after start of arginine infusion = 15 minutes after suspension of substance infusion) is recorded as “failed to exert its effect”. For the same molecule, the “rise in blood insulin levels versus control” value is reported as “significantly inhibited” in the series on blood insulin levels (at more than 10 times the basal dose, 15 minutes after start of arginine infusion) and “significantly inhibited” in the series with blood insulin levels (at more than 100 times the basal dose, 30 minutes after start of arginine infusion). Further, in the series on blood insulin levels (setting [2]), the “rise in blood insulin levels (insulin secretion) enhanced by arginine” value was “inhibited the rise in blood insulin levels dose dependently”.

For `C[C@@H](O)[C@@H]1NC(=O)[C@H](CCCCN)NC(=O)[C@@H](Cc2c[nH]c3ccccc23)NC(=O)[C@H](Cc2ccccc2)NC(=O)[C@H](Cc2ccccc2)NC(=O)[C@H](CC(N)=O)NC(=O)[C@H](CCCCN)NC(=O)CCCCC[C@H](C(=O)O)NC(=O)[C@H](CO)NC(=O)[C@H]([C@@H](C)O)NC(=O)[C@H](Cc2ccccc2)NC1=O` [the compound of this invention, Des-(Ala^1,Gly^2)-(D-Trp^8,D-Asu^3,14)-somatostatin] (HELM PEPTIDE1{K.N.F.F.[dW].K.T.F.T.S.[O=C(O)[C@@H](CCCCCC(=O)[*:3])N[*:1]]}$PEPTIDE1,PEPTIDE1,1:R1-11:R3$$$V2.0), the “changes or side effects in respect of body weight, body temperature and blood sugar value” in the series on mouse (tail vein infusion, 5 mg/kg of body weight) was “No significant changes or side effects were observed”. The acute toxicity result with mouse (tail vein, concluded from the 5 mg/kg experiment) is on record as “considered to be insignificant”. The “stability compared with somatostatin” value in series [1] is reported as “far superior to somatostatin”. Further, the solubility in water result in “Solubility in water” is reported as “soluble in water”.
